Legend:
[1] = test system: Arabidopsis wild-type control plants; test: Arabidopsis germination/growth inhibition assay in 48-well plates; type: in vivo, Arabidopsis thaliana; conditions: plant growth IC50 relative to wildtype
Protocol: (§1) Tolerance to N-heterocyclyl-arylcarboxamides can also be assessed in Arabidopsis. In this case transgenic Arabidopsis thaliana plants are assayed for improved tolerance to N-heterocyclyl-arylcarboxamides in 48-well plates. Seeds are surface sterilized by stirring for 5 min in ethanol+water (70+30 by volume), rinsing one time with ethanol+water (70+30 by volume) and two times with a sterile, deionized water. The seeds are resuspended in 0.1% agar dissolved in water (w/v). Four to five seeds per well are plated on solid nutrient medium consisting of half-strength Murashige Skoog nutrient solution, pH 5.8 (Murashige and Skoog (1962) Physiologia Plantarum 15: 473-497). Compounds are dissolved in dimethylsulfoxid (DMSO) and added to the medium prior solidification (final DMSO concentration 0.1%). Multi well plates are incubated in a growth chamber at 22° C., 75% relative humidity and 110 μmol Phot*m-2*s-1 with 14:10 h light: dark photoperiod. Seven to ten days after seeding growth inhibition is evaluated by comparison to wild type plants. Tolerance factor is calculated by dividing the plant growth IC50 value of transgenic plants containing a HPPD and/or HST sequence by that of wildtype plants.

[2] = test system: transgenic Arabidopsis plants overexpressing HPPD (Seq ID: 53); test: as above; type: in vivo, Arabidopsis thaliana; conditions: plant growth IC50 of transgenic divided by wildtype; HPPD (Seq ID: 53) overexpression
Protocol: as §1

[3] = biological target: T1, Arabidopsis HPPD (SEQ ID NO:53) (Arabidopsis thaliana, UniProt P93836); test: HPPD activity assay (HGA by HPLC), wildtype enzyme; type: biochemical; conditions: Arabidopsis enzyme
T1 construct: His6 (N); made in house; host or cells: E. coli BL21 (DE3)
T1 sequence (P93836 1-445): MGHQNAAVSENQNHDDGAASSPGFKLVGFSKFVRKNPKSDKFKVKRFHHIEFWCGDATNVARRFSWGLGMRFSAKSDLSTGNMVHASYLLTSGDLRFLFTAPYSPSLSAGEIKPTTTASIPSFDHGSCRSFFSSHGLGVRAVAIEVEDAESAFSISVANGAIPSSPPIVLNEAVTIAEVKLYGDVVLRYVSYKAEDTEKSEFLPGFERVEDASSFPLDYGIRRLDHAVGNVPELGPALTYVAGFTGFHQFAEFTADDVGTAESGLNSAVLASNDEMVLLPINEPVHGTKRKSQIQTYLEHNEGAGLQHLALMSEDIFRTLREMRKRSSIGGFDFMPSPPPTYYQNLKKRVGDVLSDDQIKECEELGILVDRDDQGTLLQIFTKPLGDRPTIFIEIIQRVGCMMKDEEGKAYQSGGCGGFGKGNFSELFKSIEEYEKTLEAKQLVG
Protocol: (§2) HPPD produces homogentisic acid and CO2 from 4-hydroxyphenylpyruvate (4-HPP) and O2. The activity assay for HPPD is based on the analysis of homogentisic acid by reversed phase HPLC.
(§3) The assay mixture can contain 150 mM potassium phosphate buffer pH 7.0, 50 mM L-ascorbic acid, 100 μM Catalase (Sigma-Aldrich), 1 μM FeSO4 and 0.2 units of purified HPPD enzyme in a total volume of 505 μl. 1 unit is defined as the amount of enzyme that is required to produce 1 nmol of HGA per minute at 20° C.
(§4) After a preincubation of 30 min the reaction is started by adding 4-HPP to a final concentration of 0.05 mM. The reaction is allowed to proceed for 45 min at room temperature. The reaction is stopped by the addition of 50 μl of 4.5 M phosphoric acid. The sample is filtered using a […] pore size PVDF filtration device.
(§5) 5 μl of the cleared sample is analyzed on an UPLC HSS T3 column (particle size 1.8 μm, dimensions 2.1×50 mm; Waters) by isocratic elution using 90% 20 mM NaH2PO4 pH 2.2, 10% methanol (v/v).
(§6) HGA is detected electrochemically at 750 mV (mode: DC; polarity: positive) and quantified by integrating peak areas (Empower software; Waters).
(§7) Inhibitors are dissolved in DMSO (dimethylsulfoxide) to a concentration of 0.5 mM. From this stock solution serial five-fold dilutions are prepared in DMSO, which are used in the assay. The respective inhibitor solution accounts for 1% of the assay volume. […] Activities are normalized by setting the uninhibited enzyme activity to 100%. IC50 values are calculated using non-linear regression.
(§8) Using methods which are described in the above examples or well known in the art, purified, recombinant wildtype HPPD enzymes are characterized with respect to their kinetic properties and sensitivity towards HPPD inhibiting herbicides. Apparent michaelis constants (Km) and maximal reaction velocities (Vmax) are calculated by non-linear regression with the software GraphPad Prism 5 (GraphPad Software, La Jolla, USA) using a substrate inhibition model. […] Weighted means (by standard error) of Km and IC50 values are calculated from at least three independent experiments.
(§9) Field performance of the HPPD enzyme, which is used as a herbicide tolerance trait may depend not only on its lack of sensitivity towards HPPD inhibiting herbicides but also on its activity. To assess the potential performance of a herbicide tolerance trait a tolerance index (TI) is calculated using the following formula: […]
(§10) Easy comparison and ranking of each trait is enabled by normalizing tolerance indexes on Arabidopsis wild-type HPPD.

[4] = biological target: T2, Hordeum HPPD (SEQ ID NO:2) (Hordeum vulgare, UniProt O48604, A164G/R146V/R147D/R148G); test: HPPD activity assay (HGA by HPLC), wildtype enzyme; type: biochemical; conditions: Hordeum enzyme
T2 construct: subcloned into a modified pET24D (Novagen) expression vector resulting in N-terminally His-tagged expression constructs; His tag (N); made in house; host or cells: E. coli BL21 (DE3)
T2 sequence (O48604 whole entry R146V/R147D/R148G/A164G): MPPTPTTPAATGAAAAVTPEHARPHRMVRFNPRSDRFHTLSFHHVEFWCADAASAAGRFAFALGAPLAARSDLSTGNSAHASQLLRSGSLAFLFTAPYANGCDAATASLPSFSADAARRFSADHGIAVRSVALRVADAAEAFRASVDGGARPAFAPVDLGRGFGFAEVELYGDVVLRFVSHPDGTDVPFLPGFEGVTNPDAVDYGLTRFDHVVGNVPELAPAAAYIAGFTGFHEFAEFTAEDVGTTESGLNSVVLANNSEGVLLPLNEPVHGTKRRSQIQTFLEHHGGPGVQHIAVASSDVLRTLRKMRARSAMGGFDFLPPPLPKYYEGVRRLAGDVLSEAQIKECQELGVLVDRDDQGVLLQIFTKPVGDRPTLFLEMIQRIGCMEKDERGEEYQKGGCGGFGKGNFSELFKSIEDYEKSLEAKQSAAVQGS
Protocol: as §2, §3, §4, §5, §6, §7, §8, §9, §10

[5] = apparent michaelis constant, read-out: Km [μM] (4-HPP)

| SMILES | Tolerance factor towards Inhibitor 2 [1] | Tolerance factor towards Inhibitor 2 [2] | Km [3, 5] [µM] | kcat ([3]; turnover number) [s⁻¹] | Km [4, 5] [µM] | kcat ([4]; turnover number) [s⁻¹] |
| --- | --- | --- | --- | --- | --- | --- |
| COc1nonc1NC(=O)c1ccc(S(C)(=O)=O)c(S(C)(=O)=O)c1C [Inhibitor 2, N-(4-methoxy-1,2,5-oxadiazol-3-yl)-2-methyl-3,4-bis(methylsulfonyl)benzamide] | 1 | 12 |  |  |  |  |
| O=C(O)C(=O)Cc1ccc(O)cc1 [Inhibitor 4-HPP, 4-hydroxyphenylpyruvate, reference compound] |  |  | 13 | 12.9 | 26 | 11.5 |

Source: patent US10829778B2, “Plants having increased tolerance to herbicides” (BASF SE, priority 2013, dated 2020)
